{
  "source": "paper PMC7279487",
  "about": "“Dual Target Ligands with 4-tert-Butylphenoxy Scaffold as Histamine H3 Receptor Antagonists and Monoamine Oxidase B Inhibitors” (International Journal of Molecular Sciences, 2020)",
  "key": {"HEK-293 cells": {"tested_on": "HEK-293 cells", "assay": "toxicity in HEK-293 cells (EZ4U)", "type": "cell-based, human", "conditions": "48 h incubation; EZ4U", "experimental": "The used reference cytostatic drug doxorubicin (DX) decreased cell viability <50% under the same conditions at very low concentrations of 0.2 and 0.05 µM. […] Oxidative damage was induced by very high toxic levels of hydrogen peroxide (H2O2; 300 µM), the popular cell model for PD research, in neuroblastoma SH-SY5Y cell line. […] Salsolinol (SAL) was used at a concentration of 50 µM as the reference compound with the proven neuroprotection activity.\nThe HEK-293 cells were seeded at a concentration of 1.5 × 10^4 cells/well in 200 μL culture medium and incubated for 24 h at 37 °C and 5% CO2. […] Then, 25 μL EZ4U labelling mixture (Biomedica, Vienna, Austria) was added and the cells were incubated for 2 h. The spectrophotometric absorbance of the samples was measured using a microplate reader (EnSpire, PerkinElmer, Waltham, MA, USA) at 492 nm. All measurements were performed in triplicate, and results are shown as mean ± SD."}, "[1]": {"tested_on": "haloperidol-induced catalepsy", "assay": "haloperidol-induced catalepsy, crossed-leg position test", "type": "in vivo, Wistar rats", "conditions": "for Times of Observation of Catalepsy (s), 0 min / Times of Observation of Catalepsy (s), 3 min / Times of Observation of Catalepsy (s), 6 min: mean ± SEM (n = 6)", "experimental": "Haloperidol (dopamine D2 antagonist)-induced catalepsy in rodents is a popular model for screening of antiparkinsonian activity of compounds [21]. Caused symptoms in animals are similar to the inability of PD patients to initiate movements. […] The reversal of catalepsy was tested for 6 min (3 times in 3 min intervals) after 1 h of haloperidol administration. As the reference compound was used MSX-3, the adenosine A2A receptor antagonist with confirmed ability to reverse catalepsy mediated by D1 and D2 receptor antagonists.\nThe experiments were carried out on male rats Wistar (180–220 g). Animals were housed in plastic cages in room at a constant temperature of 20 ± 2 °C with natural light–dark cycles. The animals had free access to standard pellet diet and water and were used after a minimum of 3 days of acclimatization to the housing conditions. Control and experimental groups consisted of 6 animals each. All experimental procedures were performed according to the European Union Directive of 22 September 2010 (2010/63/EU) and Polish legislation concerning animal care and use and was approved by the Local Ethics Committee for Experiments on Animals in Kraków, Poland (Resolution No. 70/2014, approval date: 20 May 2014). The examined compound was administered as the suspension in 0.5% methylcellulose in constant volume of 10 mL/kg.\nAntiparkinsonian activity in catalepsy tests was performed as described in [28]. Haloperidol was administered s.c. at a dose of 0.63 mg/kg, which in 100% of control animals caused catalepsy. Tested compounds were administered i.p. at the doses 50 and 25 mg/kg body weight, 5 min after haloperidol injection. After 60 min from the injection of haloperidol, to assess the occurrence of catalepsy, the animals were placed in a forced position and the time they remained in this position was measured. Two tests were performed to determine the antiparkinsonian activity: crossed leg position test and bar test. In the first test, the animals were put on the hind paws behind the front (forced position); in the second, the animals were supported on a wooden block (the front paws were placed on a block suspended 10 cm above the ground). Then, the time that the animals remain is measured in a forced position (time was measured to a maximum of 60 s). Observation was carried out 3 times in 3-min intervals. The shortening of the time of catalepsy to the control group was adopted for the antiparkinsonian activity."}},
  "data": [
    {"smiles": "CC(C)(C)c1ccc(OCCCN2CCCCC2)cc1", "note": "[DL76, 1-(3-(4-tert-butylphenoxy)propyl)piperidine]", "values": [
      {"measurement": "HEK-293 cell viability", "setting": "HEK-293 cells", "value": "observed only at the highest doses of 125 µM and 250 µM"},
      {"measurement": "duration of catalepsy (versus control 19.25)", "setting": "[1]; 25 mg/kg body weight", "value": 8.75},
      {"measurement": "reduction of the duration of catalepsy compared to the control group", "setting": "[1]; 25 mg/kg body weight, not statistically significant", "value": 54.5, "unit": "%"},
      {"measurement": "Times of Observation of Catalepsy (s), 0 min", "setting": "[1]; 25 mg/kg", "value": "0.66 ± 0.68", "unit": "s"},
      {"measurement": "Times of Observation of Catalepsy (s), 3 min", "setting": "[1]; 25 mg/kg", "value": "10.6 ± 6.1", "unit": "s"},
      {"measurement": "Times of Observation of Catalepsy (s), 6 min", "setting": "[1]; 25 mg/kg", "value": "15.0 ± 6.7", "unit": "s"},
      {"measurement": "duration of catalepsy (versus control 19.25)", "setting": "[1]; 50 mg/kg body weight", "value": 0.053},
      {"measurement": "reduction of the duration of catalepsy compared to the control group", "setting": "[1]; 50 mg/kg body weight, statistically significant", "value": 99.7, "unit": "%"},
      {"measurement": "Times of Observation of Catalepsy (s), 0 min", "setting": "[1]; 50 mg/kg", "value": "0 ± 0", "unit": "s"},
      {"measurement": "Times of Observation of Catalepsy (s), 3 min", "setting": "[1]; 50 mg/kg", "value": "0 ± 0", "unit": "s"},
      {"measurement": "Times of Observation of Catalepsy (s), 6 min", "setting": "[1]; 50 mg/kg", "value": "0.16 ± 0.4", "unit": "s"}
    ]}
  ]
}
